Test [1] concerns parent strain (SAWy518).
The subject of test [2] is parent strain (SAWy518). Kind of test: microbe, parasite or virus in culture. Further details: species or system Saccharomyces cerevisiae SAWy518; Off-target growth counter-screen, OD600 as per cent of untreated wells, strain lacking MCT1. Particulars: 18.5 h; sheet Primary Screen - final;; off-target growth of parent strain, about 18 h. Here is the method:
Cells were grown for 18 hours prior to OD measurement. Fill represents manual compound grouping based on compound class or target. OD600 is reported in Tecan units. […] The drug library used in this study for the initial screen and rescreen was provided by the Small Molecule Screening Center at Princeton University, through a collaboration with Dr. Hahn Kim. […] Follow-up analysis (IC50 determinations) on library compounds was performed using compounds purchased from outside sources. […] Stocks were then diluted 100-fold into media containing 0.01 OD600 inoculation of yeast, to achieve the final concentrations listed. Where compounds were added manually (for example 10 μM AZD3965 addition) stock concentrations were diluted by a factor of 100-fold regardless of scale, resulting in a final concentration of 1% v/v DMSO which is well tolerated by yeast.

Usually viability stands for a read-out of living cells in per cent, often relative to untreated cells.

As for `C=CCOC(Cn1ccnc1)c1ccc(Cl)cc1Cl` (stereo not drawn) [Enilconazole], in test [1], the OffScreen_percentage is given as 100.372 percentage, the Offscreen_18hr stood at 0.81, the Offscreen_24hr came to 0.8908 and the Offscreen_42hr is 0.9485. Besides, the Read_percentage in test [1] is listed as 100.372 percentage. Further, in test [2], the viability at 10 µM is 100%.

In the case of `Cc1ccc(S(=O)(=O)N[C@@H](Cc2ccccc2)C(=O)CCl)cc1` [TCPK], in test [1], the OffScreen_percentage was determined as 91.0409 percentage, the Offscreen_18hr is listed as 0.7347, the Offscreen_24hr is 0.8725 and the Offscreen_42hr turned out to be 0.9353. Moreover, in test [1], the Read_percentage is recorded as 91.0409. Moreover, the viability at 10 µM in test [2] was determined as 91%.

`CC1(C)C=Cc2c(c3c(c4c(=O)c(-c5ccc(O)c(O)c5)coc24)OC(C)(C)CC3)O1` [Isopomiferin]: in test [1], the OffScreen_percentage is 94.8327 percentage, the Offscreen_18hr came to 0.7653, the Offscreen_24hr was 0.8834 and the Offscreen_42hr amounted to 0.95. Further, the Read_percentage in test [1] came to 94.8327 percentage. In addition, in test [2], the viability at 10 µM amounted to 94.8%.

Regarding `COc1ccc(-c2coc3cc(O)cc(O)c3c2=O)cc1` [Biochanin A], in test [1], the OffScreen_percentage came out at 98.1165 percentage, the Offscreen_18hr came out at 0.7918, the Offscreen_24hr came out at 0.8858 and the Offscreen_42hr was 0.9431. Moreover, in test [1], the Read_percentage is given as 98.1165 percentage. For the same compound, the viability at 10 µM in test [2] was 98.1%.

For `NCCS(=O)(=O)O` [Taurine], in test [1], the OffScreen_percentage is 104.139 percentage, the Offscreen_18hr turned out to be 0.8404, the Offscreen_24hr amounted to 0.9173 and the Offscreen_42hr stood at 0.9826. Further, in test [1], the Read_percentage is given as 104.139. For the same compound, the viability at 10 µM in test [2] was found to be 104%.

With `O=C(O)Cn1c(C(=O)Nc2nc(-c3ccccc3Cl)cs2)cc2ccccc21` [SR-27897], in test [1], the OffScreen_percentage came out at 98.4758 percentage, the Offscreen_18hr is listed as 0.7947, the Offscreen_24hr is 0.9051 and the Offscreen_42hr is listed as 0.9619. Further, the Read_percentage in test [1] is listed as 98.4758. In addition, the viability at 10 µM in test [2] is 98.5%.

For `O=c1c(-c2ccc(O)cc2)coc2cc(O)cc(O)c12` [Genistein], in test [1], the OffScreen_percentage is reported as 100.644 percentage, the Offscreen_18hr turned out to be 0.8122, the Offscreen_24hr is given as 0.8948 and the Offscreen_42hr is 0.9535. In test [1], the Read_percentage is recorded as 100.644 percentage. Moreover, in test [2], the viability at 10 µM was determined as 101%.

Take `COc1ncc(-c2ccc3nccc(-c4ccnnc4)c3c2)cc1NS(=O)(=O)c1ccc(F)cc1F` [GSK2126458]: in test [1], the OffScreen_percentage stood at 90.1487 percentage, the Offscreen_18hr came to 0.7275, the Offscreen_24hr is 0.8997 and the Offscreen_42hr turned out to be 0.9503. Also, in test [1], the Read_percentage stood at 90.1487 percentage. Besides, the viability at 10 µM in test [2] stood at 90.1%.

Consider `COc1cc(C)c2c(=O)cc(-c3ccccc3)oc2c1` [Methoxyvone], for which, in test [1], the OffScreen_percentage is on record as 95.2292 percentage, the Offscreen_18hr came out at 0.7685, the Offscreen_24hr stood at 0.8867 and the Offscreen_42hr was 0.9442. For the same compound, in test [1], the Read_percentage is listed as 95.2292 percentage. In test [2], the viability at 10 µM came out at 95.2%.

For `O=C1c2ccc(Nc3ccc(F)cc3F)cc2CCc2ccc(OC[C@H](O)CO)cc21` [Skepinone-L], in test [1], the OffScreen_percentage turned out to be 96.8897 percentage, the Offscreen_18hr is reported as 0.7819, the Offscreen_24hr was 0.9197 and the Offscreen_42hr came out at 0.985. Moreover, the Read_percentage in test [1] is 96.8897. In addition, the viability at 10 µM in test [2] is 96.9%.

As for `CCCCC1=NC2(CCCC2)C(=O)N1Cc1ccc(-c2ccccc2-c2nnn[nH]2)cc1` [Irbesartan], in test [1], the OffScreen_percentage came to 100.942 percentage, the Offscreen_18hr is 0.8146, the Offscreen_24hr is 0.8985 and the Offscreen_42hr came out at 0.9579. For the same compound, the Read_percentage in test [1] worked out at 100.942 percentage. Besides, the viability at 10 µM in test [2] came to 101%.

For `CCCN1CCCC[C@H]1C(=O)Nc1c(C)cccc1C` [Ropivacaine], in test [1], the OffScreen_percentage is on record as 101.016 percentage, the Offscreen_18hr was 0.8152, the Offscreen_24hr is reported as 0.8959 and the Offscreen_42hr is reported as 0.9539. Moreover, the Read_percentage in test [1] came out at 101.016. Moreover, the viability at 10 µM in test [2] worked out at 101%.

Regarding `COc1ccc([C@@H](C)C(=O)c2ccc(O)cc2O)cc1` [Angolesin], in test [1], the OffScreen_percentage came to 95.7373 percentage, the Offscreen_18hr was determined as 0.7726, the Offscreen_24hr was 0.8843 and the Offscreen_42hr amounted to 0.9388. Further, the Read_percentage in test [1] was determined as 95.7373 percentage. For the same compound, in test [2], the viability at 10 µM amounted to 95.7%.

In the case of `CC(C(=O)O)c1ccc2c(c1)[nH]c1ccc(Cl)cc12` (stereo not drawn) [Carprofen], in test [1], the OffScreen_percentage was determined as 90.223 percentage, the Offscreen_18hr came out at 0.7281, the Offscreen_24hr is recorded as 0.8523 and the Offscreen_42hr is listed as 0.8964. Further, the Read_percentage in test [1] is given as 90.223 percentage. In addition, the viability at 10 µM in test [2] worked out at 90.2%.

Take `COc1cccc2c1[C@@H]1CN(CCCCn3c(=O)[nH]c4c(sc5ncc(-c6ccccc6)nc54)c3=O)C[C@@H]1CO2` [Fiduxosin]: in test [1], the OffScreen_percentage turned out to be 97.5341 percentage, the Offscreen_18hr is listed as 0.7871, the Offscreen_24hr is listed as 0.8863 and the Offscreen_42hr is on record as 0.944. In addition, in test [1], the Read_percentage is given as 97.5341 percentage. In addition, the viability at 10 µM in test [2] is 97.5%.

Consider `N#CC(c1ccc(Cl)cc1)c1c(Cl)cc(-n2ncc(=O)[nH]c2=O)cc1Cl` (stereo not drawn) [Diclazuril], for which, in test [1], the OffScreen_percentage is 92.7138 percentage, the Offscreen_18hr stood at 0.7482, the Offscreen_24hr stood at 0.8733 and the Offscreen_42hr was 0.9299. Further, the Read_percentage in test [1] worked out at 92.7138 percentage. The viability at 10 µM in test [2] is 92.7%.

With `O=C(O)Cc1cc(I)c(Oc2cc(I)c(O)c(I)c2)c(I)c1` [TETRAC], in test [1], the OffScreen_percentage turned out to be 101.202 percentage, the Offscreen_18hr is recorded as 0.8167, the Offscreen_24hr stood at 0.8874 and the Offscreen_42hr came out at 0.9359. Also, the Read_percentage in test [1] was found to be 101.202. Moreover, the viability at 10 µM in test [2] was determined as 101%.

Consider `O=C(C1CCCCC1)N1CC(=O)N2CCc3ccccc3C2C1` (stereo not drawn) [Praziquantel], for which, in test [1], the OffScreen_percentage came to 99.8637 percentage, the Offscreen_18hr turned out to be 0.8059, the Offscreen_24hr worked out at 0.8815 and the Offscreen_42hr is given as 0.9399. For the same compound, in test [1], the Read_percentage is on record as 99.8637 percentage. Further, in test [2], the viability at 10 µM is 99.9%.

Consider `O=c1cc(-c2ccc(O)cc2)oc2cc(O)cc(O)c12` [Apigenin], for which, in test [1], the OffScreen_percentage is reported as 96.0843 percentage, the Offscreen_18hr is on record as 0.7754, the Offscreen_24hr worked out at 0.8699 and the Offscreen_42hr is 0.9646. For the same compound, the Read_percentage in test [1] turned out to be 96.0843 percentage. Moreover, the viability at 10 µM in test [2] came to 96.1%.

On to `Cc1cc(C(C)(C)CC(C)(C)C)ccc1OCCOCC[N+](C)(C)Cc1ccccc1` [Methylbenzethonium], for which, in test [1], the OffScreen_percentage is reported as 95.9727 percentage, the Offscreen_18hr was 0.7745, the Offscreen_24hr was determined as 0.875 and the Offscreen_42hr is listed as 0.932. Also, the Read_percentage in test [1] was 95.9727 percentage. Besides, the viability at 10 µM in test [2] came out at 96%.

As to `C/C=C(/C(=C/C)c1ccc(O)cc1)c1ccc(O)cc1` [Dienestrol], in test [1], the OffScreen_percentage was 99.2565 percentage, the Offscreen_18hr was determined as 0.801, the Offscreen_24hr is listed as 0.8973 and the Offscreen_42hr was determined as 0.9599. In test [1], the Read_percentage came to 99.2565 percentage. In test [2], the viability at 10 µM worked out at 99.3%.

Regarding `COC1=C(CC=C(C)C)C(=O)c2ccccc2C1=O` [Lapachol methyl ester], in test [1], the OffScreen_percentage is listed as 101.524 percentage, the Offscreen_18hr came out at 0.8193, the Offscreen_24hr was 0.9161 and the Offscreen_42hr was found to be 0.9749. In addition, the Read_percentage in test [1] is reported as 101.524 percentage. In test [2], the viability at 10 µM was found to be 102%.

Consider `O=C(O)c1ccc(-n2nc(-c3ccccc3O)nc2-c2ccccc2O)cc1` [Deferasirox], for which, in test [1], the OffScreen_percentage came to 95.9727 percentage, the Offscreen_18hr is listed as 0.7745, the Offscreen_24hr came to 0.8724 and the Offscreen_42hr is listed as 0.9291. Besides, in test [1], the Read_percentage is reported as 95.9727 percentage. Besides, the viability at 10 µM in test [2] was found to be 96%.

As to `O=C(O)c1ccccc1-c1c2cc(I)c(=O)c(I)c-2oc2c(I)c(O)c(I)cc12` [Erythrosine], the viability at 10 µM in test [2] was 101%.

Regarding `CC1=C(CC(=O)O)c2cc(F)ccc2/C1=C\c1ccc([S+](C)[O-])cc1` (stereo not drawn) [Sulindac], the viability at 10 µM in test [2] was 103%.

As for `O=C(/C=C/c1ccc(O)cc1)c1ccccc1` [4-hydroxychalcone], in test [2], the viability at 10 µM is 104%.

The values are drawn from article PMC11637378, “Optogenetic screening of MCT1 activity implicates a cluster of non-steroidal anti-inflammatory drugs (NSAIDs) as inhibitors of lactate transport” (PLOS ONE, 2024).
